Data reported in patent US8357654B2, “Multimeric CD40 ligands, method for preparing same and use thereof for preparing drugs” (Centre National de la Recherche Scientifique, priority 2004, dated 2013).
Blank lines part the entries; values can stand above or below the compound they belong to. Non-standard residues stand in square brackets, D forms with d. Residues, ends and D or L forms follow the SMILES beside them. Groups on a side chain read outwards from the residue. No end group written: not given here. *: point of attachment. Biotin = O=C1N[C@H]2[C@H](CS[C@H]2CCCCC(=O)*)N1; Ahx = NCCCCCC(=O)O

Key:
[1] = test system: BL41 Burkitt's lymphoma cells (CD40+); experiment: Apoptosis of BL41 Burkitt's lymphoma cells, flow cytometry after DiOC6 labelling; type: cell-based; settings: 16 hours
Description: (§1) The agonist effect of the ligands was tested by means of a simple biological test which is based on the property of certain B lymphomas of entering into apoptosis during the bridging of their membranous CD40 molecule (Tong et al., 1999). In fact, these B lymphomas enter into apoptosis during the bridging of their CD40 molecule by an anti-CD40 antibody or by soluble CD40L. The agonist ligands of CD40 will similarly induce an increase in the apoptosis of Burkitt's lymphoma cells which is measured by a precise analysis with flow cytometry.
(§2) BL41 Burkitt's or Raji (ATCC CCL-86) lymphoma cells (5.10^5/mL) two similar cell lines, are cultured in the presence of the different ligands at the desired concentrations. After 16 hours, the cells are labelled with 3,3′-dihexyloxacarbocyanine iodide (DiOC6) at 40 nM (Petit et al., 1995) in order to evaluate the percentage of apoptotic cells using flow cytometry.

[2] = target: T1, CD40-CD40L interaction (human CD40 muIg fusion protein, human CD154 muCD8 fusion protein) (Homo sapiens, UniProt P25942); experiment: BIAcore inhibition of the CD40-CD40L interaction; type: binding; settings: ligand at 1 μM, CD40L at 35 nM
T1 construct: purchased ANCELL Corporation
Excerpt: (§3) The BIAcore 3000 is a device which allows the study of the interactions between two molecules. Based on surface plasmon resonance, it makes it possible to carry out measurements in real time and thus to follow the interaction kinetics (association and dissociation) of an “analyte” (which is found in an injected solution) with a “ligand” (immobilized on a microchip supporting the measurement). Kinetic measurements at different concentrations of analyte make it possible to calculate the affinity constants of the interaction between the ligand and the analyte. The microchip contains four cells with different measurements, which makes it possible to directly compare a reference cell on which a non-pertinent protein (a protein which has no affinity for the analyte studied but close to the ligand) is immobilized, with the cell on which the ligand is immobilized.
(§4) The test is carried out in two stages: measurement of the direct interaction of the ligands with the CD40 immobilized on the microchip and measurement of the inhibition of the CD40-CD40L interaction by the ligands.
(§5) Rabbit antibodies directed against the constant part of mouse immunoglobulins were immobilized on a microchip. […]
In order to regenerate the cells (i.e. to remove all the proteins adsorbed in non-covalent manner), a 10 mM HCl solution is injected at 5 μL/min over 1 minute. The cells are then ready for a new analysis.

[3] = target: T2, recombinant CD40 (human CD40 muIg fusion protein) (Homo sapiens, UniProt P25942); experiment: BIAcore direct interaction of the ligands with immobilized CD40; type: binding; settings: BIAcore 3000, kinetics of direct association to immobilized CD40, 30 μL/min over 4 minutes; read-out: dissociation constant
T2 construct: purchased ANCELL Corporation, Bayport, Minn
Excerpt: as §3, §4, §5
In order to regenerate the cells (i.e. to remove all the proteins adsorbed in a non-covalent manner), a 50 mM HCl solution is injected at 5 μL/min over 1 minute. The cells are then ready for a new analysis.

[4] = test system: Raji (ATCC CCL-86) lymphoma cells (CD40+); experiment: Apoptosis of Raji lymphoma cells, flow cytometry after DiOC6 labelling; type: cell-based
Description: as §1, §2

T1 sequence (P25942 21-193 limits assumed): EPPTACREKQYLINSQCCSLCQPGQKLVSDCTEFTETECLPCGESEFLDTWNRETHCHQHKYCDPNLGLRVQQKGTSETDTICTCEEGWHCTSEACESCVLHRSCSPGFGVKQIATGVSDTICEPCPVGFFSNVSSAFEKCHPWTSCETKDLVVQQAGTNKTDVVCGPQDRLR
T2 sequence (P25942 21-193 limits assumed): as above

Compound: C[C@H]1NC(=O)[C@H](CCCCNC(=O)CCCCCNC(=O)[C@H](Cc2ccc(O)cc2)NC(=O)[C@H](Cc2ccc(O)cc2)NC(=O)CNC(=O)[C@@H](N)CCCCN)NC(=O)[C@@H](C)NC(=O)[C@H](CCCCNC(=O)CCCCCNC(=O)[C@H](Cc2ccc(O)cc2)NC(=O)[C@H](Cc2ccc(O)cc2)NC(=O)CNC(=O)[C@@H](N)CCCCN)NC(=O)[C@@H](C)NC(=O)[C@H](CCCCNC(=O)CCCCCNC(=O)[C@H](Cc2ccc(O)cc2)NC(=O)[C@H](Cc2ccc(O)cc2)NC(=O)CNC(=O)[C@@H](N)CCCCN)NC1=O [L4] (cyclo(K([Ahx-Tyr-Tyr-Gly-Lys])[dA]K([Ahx-Tyr-Tyr-Gly-Lys])[dA]K([Ahx-Tyr-Tyr-Gly-Lys])[dA]))
specific apoptosis ([1]; ligand at 12.5 μM, DiOC6 flow cytometry (FIG. 5C)): 24%

inhibition of the binding of CD40L to CD40 [2]: 100%
Compound: C[C@H]1NC(=O)[C@H](CCCCNC(=O)CCCCCNC(=O)[C@H](Cc2ccc(O)cc2)NC(=O)[C@H](Cc2ccc(O)cc2)NC(=O)[C@H]2CCCN2C(=O)[C@@H](N)CCCCN)NC(=O)[C@@H](C)NC(=O)[C@H](CCCCNC(=O)CCCCCNC(=O)[C@H](Cc2ccc(O)cc2)NC(=O)[C@H](Cc2ccc(O)cc2)NC(=O)[C@H]2CCCN2C(=O)[C@@H](N)CCCCN)NC(=O)[C@@H](C)NC(=O)[C@H](CCCCNC(=O)CCCCCNC(=O)[C@H](Cc2ccc(O)cc2)NC(=O)[C@H](Cc2ccc(O)cc2)NC(=O)[C@H]2CCCN2C(=O)[C@@H](N)CCCCN)NC1=O [L40] (cyclo(K([Ahx-Tyr-Tyr-dP-Lys])[dA]K([Ahx-Tyr-Tyr-dP-Lys])[dA]K([Ahx-Tyr-Tyr-dP-Lys])[dA]))

Kd [3]: 28 nM
Compound: C[C@H]1NC(=O)[C@H](CCCCNC(=O)CCCCCNC(=O)[C@H](Cc2ccc(O)cc2)NC(=O)[C@H](Cc2ccc(O)cc2)NC(=O)CNC(=O)[C@@H](N)CCCCN)NC(=O)[C@@H](CCCCNC(=O)CCCC[C@@H]2SC[C@@H]3NC(=O)N[C@@H]32)NC(=O)[C@H](CCCCNC(=O)CCCCCNC(=O)[C@H](Cc2ccc(O)cc2)NC(=O)[C@H](Cc2ccc(O)cc2)NC(=O)CNC(=O)[C@@H](N)CCCCN)NC(=O)[C@@H](C)NC(=O)[C@H](CCCCNC(=O)CCCCCNC(=O)[C@H](Cc2ccc(O)cc2)NC(=O)[C@H](Cc2ccc(O)cc2)NC(=O)CNC(=O)[C@@H](N)CCCCN)NC1=O [L41] (cyclo(K([Ahx-Tyr-Tyr-Gly-Lys])[dA]K([Ahx-Tyr-Tyr-Gly-Lys])[dA]K([Ahx-Tyr-Tyr-Gly-Lys])[dK](Biotin)))

Compound: H-Lys-Pro-Tyr-Tyr-Ahx-OH (H-KPYY[Ahx]-OH; SMILES NCCCC[C@H](N)C(=O)N1CCC[C@H]1C(=O)N[C@@H](Cc1ccc(O)cc1)C(=O)N[C@@H](Cc1ccc(O)cc1)C(=O)NCCCCCC(=O)O) [L45, control peptide in which D-Proline is replaced by L-Proline]
biological activity (induction of apoptosis), in words ([1]; dose-response (FIG. 5B, 5C)): no activity

Compound: L43: compound of formula (III-a) in which Rc is Ahx-(D)Pro-Tyr-Tyr-NH—(CH2)5—CO— (peptide [Ahx][dP]YY[Ahx]; chain K[dA]K[dA]K[dA]; also: three copies of chain 1 amide-linked via C-terminal Ahx to the three Lys side-chain amines of the ring (chain 2), head-to-tail to a chain's N/C-terminus)
effectiveness in inducing apoptosis, in words ([4]; Raji cells, 16 hours, dose-response (FIG. 5D)): less effective than its homologue L4 | inhibition of the binding of CD40L to CD40 [2]: 30%

Compound: L62: compound of formula (III-a) in which Rc is H-Lys-ψ(CH2N)-(D)Pro-Tyr-Tyr-NH—(CH2)5—CO— (peptide H-K[dP]YY[Ahx]; chain K[dA]K[dA]K[dA]; also: reduced bond psi(CH2N) between Lys1 and D-Pro2 of chain 1, three copies of chain 1 amide-linked via C-terminal Ahx to the three Lys side-chain amines of the ring (chain 2), head-to-tail to a chain's N/C-terminus)
effectiveness and selectivity of apoptosis induction, in words ([4]; Raji and BL41 (CD40+) versus Jurkat (CD40−) cells, 16 hours (FIGS. 8A, 8B)): effective and selective ligand
